From US20260062412A1, “NITROGEN-CONTAINING HETEROCYCLIC COMPOUND HAVING MYT1 INHIBITORY ACTIVITY” (CHUGAI SEIYAKU KABUSHIKI KAISHA, priority 2023, published 2026)
Structures can show the parent of a compound that is named as a salt.

Legend:
LU65 = test: Cytotoxicity test with pemetrexed upon addition of each example compound (CellTiter-Glo); format: cell-based, human; conditions: combination with pemetrexed, LU65 cells, 7 days; maximum value, at the MYT1 inhibitor and pemetrexed concentrations
Procedure: LU65 (received from human tissue bank (JCRB Cell Bank)) was used in the evaluation of the present invention. LU65 is a lung cancer cell line having a truncated deletion mutation of S82* in RB1 gene (see Nature. 2019 May; 569(7757): 503-508. (Non Patent Literature 22)), in which the function of RB1 is decreased. The cell culture was carried out using RPMI-1640 (manufactured by SIGMA) containing 10% FBS (manufactured by SIGMA).
Each pemetrexed (manufactured by Tokyo Kasei Kogyo Co., Ltd.) and each example compound of each concentration were diluted using a DMSO solution, and 0.04 μL of each of series of dilution and DMSO was added to each well of cell culture plate using Echo 555 Liquid Handler (manufactured by Beckman Coulter Inc.). 1000 LU65 cells ([…]) were added to each well, which was cultured at 37° C. in a 5% CO2 incubator for 7 days. Intracellular ATP level which is a cell survival marker was measured and used in the monitoring of cell number. After culturing, 20 μL of CellTiter-Glo (registered trademark) 2.0 (manufactured by Promega) was added to each well, and the emission intensity was measured using Multimode Plate Reader En Vision (registered trademark) Xcite (manufactured by PerkinElmer). The cell survival rate under each condition was calculated by setting the value obtained by subtracting the luminescence of the cell unseeded well from the luminescence of the DMSO-added well as 100%, and calculating the proportion of a value obtained by subtracting the luminescence of the cell unseeded well from the luminescence detected at each well.
In addition, the cytotoxic activity under each condition was calculated by subtracting the survival rate in a combination of pemetrexed of each treatment concentration and each example compound of each treatment concentration, from 100%.

MYT1 protein [1] = biological target: T1, MYT1 protein (Homo sapiens (Human), UniProt Q99640); test: MYT1 kinase activity inhibition test (ELISA, phosphorylation of Y15 of CDK1); format: biochemical; conditions: phosphorylation level of Y15 of CDK1 protein caused by MYT1 protein, 60 minutes
Procedure: The MYT1 kinase activity inhibitory capacity of each compound was evaluated by evaluating the phosphorylation level of Y15 of CDK1 protein caused by MYT1 protein, by ELISA. The kit of CycLex Weel Kinase Assay/Inhibitor Screening Kit Ver. 3 (manufactured by MBL, CY-1172V3) was used. Using Kinase Buffer, 10 μL of 5 nM MYT1 protein (manufactured by Carna Biosciences, Inc.) was prepared. In addition, 30 μL of 83.3 μM of ATP was prepared using Kinase Buffer. In addition, 10 μL of each compound was diluted to each concentration using Kinase Buffer. 30 μL of ATP was added to the plate of the kit, and thereafter, 10 μL of each compound was added thereto. Further, 10 μL of the diluted MYT1 protein solution was added thereto, and then the mixture was mixed, which was allowed to stand at room temperature for 60 minutes. The reaction solution was removed from each well, and each well was washed using Wash Buffer. After Wash Buffer was removed, 100 μL of HRP conjugated Anti-phospho-tyrosine antibody was added to each well, which was allowed to stand at room temperature for 60 minutes. Thereafter, the reaction solution was removed from each well, and each well was washed using Wash Buffer. After Wash Buffer was removed, 100 μL of Substrate Reagent was added to each well, which was allowed to stand at room temperature for 8 minutes. Thereafter, 100 μL of Stop Solution (1 N sulfuric acid) was added to each well according to the manual. Absorbances at 450 nm and 590 nm were measured using Envision (manufactured by PerkinElmer). The phosphorylation level of CDK1 protein was evaluated for each well by subtracting the absorbance at 590 nm from the absorbance at 450 nm. The inhibition rate of each compound added at each concentration was calculated by setting the signal when the compound was not added as 100% and the signal when MYT1 protein was not added as 0%, and the calculation results of IC50 were shown in Table 4.

MYT1 protein [2] = biological target: T1, MYT1 protein; test: Test for binding to ATP binding site of MYT1 (Kinase Tracer 178 / Eu-Anti-GST antibody TR-FRET); conditions: ATP binding site of MYT1, 30 minutes at room temperature

T1 sequence (Q99640 whole entry): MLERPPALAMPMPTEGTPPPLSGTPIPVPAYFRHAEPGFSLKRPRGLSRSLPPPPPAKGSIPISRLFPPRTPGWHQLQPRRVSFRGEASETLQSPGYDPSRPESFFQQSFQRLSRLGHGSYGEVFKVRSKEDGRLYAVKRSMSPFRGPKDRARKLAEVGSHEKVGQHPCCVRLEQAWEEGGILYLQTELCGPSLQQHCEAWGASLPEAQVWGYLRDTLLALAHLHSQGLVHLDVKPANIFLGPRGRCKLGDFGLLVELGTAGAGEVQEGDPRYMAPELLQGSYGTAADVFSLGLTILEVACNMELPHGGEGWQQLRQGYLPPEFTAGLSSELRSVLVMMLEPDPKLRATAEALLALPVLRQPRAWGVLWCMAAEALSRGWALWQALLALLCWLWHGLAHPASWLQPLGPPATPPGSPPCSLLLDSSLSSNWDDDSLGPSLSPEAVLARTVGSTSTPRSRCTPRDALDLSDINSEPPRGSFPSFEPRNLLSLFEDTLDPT

Structure (SMILES): Nc1c(-c2c(F)ccc3[nH]ncc23)c2cc(C3CC3)c3ncccc3c2[nH]c1=O (racemic) [Compound C156, 3-Amino-6-cyclopropyl-4-(5-fluoro-1H-indazol-4-yl)-1H-1,7-phenanthrolin-2-one]
- Bliss Score (Max) (LU65): 51%
- HSA Score (MAX) (LU65): 59%
- IC50 (MYT1 protein [1]): 6.2 nM
- IC50 (MYT1 protein [2]): 2.1 nM

Structure (SMILES): Nc1c(-c2ccc(Cl)c3[nH]ncc23)c2cc(Cl)c(Br)cc2[nH]c1=O [Compound A27, 3-Amino-7-bromo-6-chloro-4-(7-chloro-1H-indazol-4-yl)-1H-quinolin-2-one]
- IC50 (MYT1 protein [1]): 0.52 nM
- IC50 (MYT1 protein [2]): 40 nM

Structure (SMILES): Nc1c(-c2ccc(Cl)c3[nH]ncc23)c2cc(Cl)c(OC(F)F)cc2[nH]c1=O [Compound A30, 3-Amino-6-chloro-4-(7-chloro-1H-indazol-4-yl)-7-(difluoromethoxy)-1H-quinolin-2-one]
- IC50 (MYT1 protein [1]): 0.71 nM
- IC50 (MYT1 protein [2]): 43 nM

Structure (SMILES): Nc1c(-c2cc(F)cc3[nH]ncc23)c2cc(Cl)ccc2[nH]c1=O [Compound A56, 3-Amino-6-chloro-4-(6-fluoro-1H-indazol-4-yl)-1H-quinolin-2-one]
- IC50 (MYT1 protein [1]): 1.1 nM
- IC50 (MYT1 protein [2]): 58 nM

Structure (SMILES): Nc1c(-c2ccc(F)c3[nH]ncc23)c2cc(Cl)ccc2[nH]c1=O [Compound A57, 3-Amino-6-chloro-4-(7-fluoro-1H-indazol-4-yl)-1H-quinolin-2-one]
- IC50 (MYT1 protein [1]): 0.61 nM
- IC50 (MYT1 protein [2]): 13 nM

Structure (SMILES): Nc1c(-c2ccc(Cl)c3[nH]ncc23)c2cc(Cl)ccc2[nH]c1=O [Compound A59, 3-Amino-6-chloro-4-(7-chloro-1H-indazol-4-yl)-1H-quinolin-2-one]
- Bliss Score (Max) (LU65): 55%
- HSA Score (MAX) (LU65): 58%
- IC50 (MYT1 protein [1]): 0.6 nM
- IC50 (MYT1 protein [2]): 5.8 nM

Structure (SMILES): Cc1ccc(-c2c(N)c(=O)[nH]c3ccc(Cl)cc23)c2cn[nH]c12 [Compound A60, 3-Amino-6-chloro-4-(7-methyl-1H-indazol-4-yl)-1H-quinolin-2-one]
- IC50 (MYT1 protein [1]): 0.55 nM
- IC50 (MYT1 protein [2]): 7 nM

Structure (SMILES): Nc1c(-c2ccc(C(F)(F)F)c3[nH]ncc23)c2cc(Cl)ccc2[nH]c1=O [Compound A61, 3-Amino-6-chloro-4-[7-(trifluoromethyl)-1H-indazol-4-yl]-1H-quinolin-2-one]
- IC50 (MYT1 protein [1]): 5 nM
- IC50 (MYT1 protein [2]): 140 nM

Structure (SMILES): Nc1c(-c2cccc(O)c2)c2ccc3ccccc3c2[nH]c1=O [Compound B2, 3-Amino-4-(3-hydroxyphenyl)-1H-benzo[h]quinolin-2-one]
- IC50 (MYT1 protein [1]): 4 nM
- IC50 (MYT1 protein [2]): 22 nM

Structure (SMILES): Nc1c(-c2cccc(O)c2)c2cc(C3CC3)c3ccccc3c2[nH]c1=O [Compound B3, 3-Amino-6-cyclopropyl-4-(3-hydroxyphenyl)-1H-benzo[h]quinolin-2-one]
- Bliss Score (Max) (LU65): 78%
- HSA Score (MAX) (LU65): 77%
- IC50 (MYT1 protein [1]): 0.52 nM
- IC50 (MYT1 protein [2]): 7.3 nM

Structure (SMILES): N#Cc1cc2c(-c3cccc(O)c3)c(N)c(=O)[nH]c2c2ccccc12 [Compound B7, 3-Amino-4-(3-hydroxyphenyl)-2-oxo-1H-benzo[h]quinoline-6-carbonitrile]
- IC50 (MYT1 protein [1]): 5.7 nM
- IC50 (MYT1 protein [2]): 6 nM

Structure (SMILES): Nc1c(-c2ccc(F)c3[nH]ncc23)c2cc(C3CC3)c3ccccc3c2[nH]c1=O [Compound B22, 3-Amino-6-cyclopropyl-4-(7-fluoro-1H-indazol-4-yl)-1H-benzo[h]quinolin-2-one]
- Bliss Score (Max) (LU65): 56%
- HSA Score (MAX) (LU65): 64%
- IC50 (MYT1 protein [1]): 0.25 nM
- IC50 (MYT1 protein [2]): 11 nM

Structure (SMILES): CCc1cc2c(-c3ccc(F)c4[nH]ncc34)c(N)c(=O)[nH]c2c2ccccc12 [Compound B23, 3-Amino-6-ethyl-4-(7-fluoro-1H-indazol-4-yl)-1H-benzo[h]quinolin-2-one]
- Bliss Score (Max) (LU65): 58%
- HSA Score (MAX) (LU65): 63%
- IC50 (MYT1 protein [1]): 0.26 nM
- IC50 (MYT1 protein [2]): 8.3 nM

Structure (SMILES): Nc1c(-c2ccc(F)c3[nH]ncc23)c2cc(C3CCC3)c3ccccc3c2[nH]c1=O [Compound B24, 3-Amino-6-cyclobutyl-4-(7-fluoro-1H-indazol-4-yl)-1H-benzo[h]quinolin-2-one]
- Bliss Score (Max) (LU65): 52%
- HSA Score (MAX) (LU65): 60%
- IC50 (MYT1 protein [1]): 0.62 nM
- IC50 (MYT1 protein [2]): 16 nM

Structure (SMILES): N#Cc1cc2c(-c3ccc(F)c4[nH]ncc34)c(N)c(=O)[nH]c2c2ccccc12 [Compound B26, 3-Amino-4-(7-fluoro-1H-indazol-4-yl)-2-oxo-1H-benzo[h]quinoline-6-carbonitrile]
- IC50 (MYT1 protein [1]): 0.37 nM
- IC50 (MYT1 protein [2]): 10 nM

Structure (SMILES): Cc1cc2c(-c3ccc(F)c4[nH]ncc34)c(N)c(=O)[nH]c2c2ccccc12 [Compound B27, 3-Amino-4-(7-fluoro-1H-indazol-4-yl)-6-methyl-1H-benzo[h]quinolin-2-one]
- IC50 (MYT1 protein [1]): 0.21 nM
- IC50 (MYT1 protein [2]): 7.3 nM

Structure (SMILES): CP(C)(=O)c1cc2c(-c3ccc(F)c4[nH]ncc34)c(N)c(=O)[nH]c2c2ccccc12 [Compound B31, 3-Amino-6-dimethylphosphoryl-4-(7-fluoro-1H-indazol-4-yl)-1H-benzo[h]quinolin-2-one]
- IC50 (MYT1 protein [1]): 0.32 nM
- IC50 (MYT1 protein [2]): 19 nM

Structure (SMILES): Nc1c(-c2ccc(F)c3[nH]ncc23)c2ccc3ccccc3c2[nH]c1=O [Compound B32, 3-Amino-4-(7-fluoro-1H-indazol-4-yl)-1H-benzo[h]quinolin-2-one]
- Bliss Score (Max) (LU65): 52%
- HSA Score (MAX) (LU65): 63%
- IC50 (MYT1 protein [1]): 0.26 nM
- IC50 (MYT1 protein [2]): 3 nM

Structure (SMILES): Nc1c(-c2ccc(F)c3[nH]ncc23)c2cc(Cl)c3ccccc3c2[nH]c1=O [Compound B34, 3-Amino-6-chloro-4-(7-fluoro-1H-indazol-4-yl)-1H-benzo[h]quinolin-2-one]
- IC50 (MYT1 protein [1]): 0.86 nM
- IC50 (MYT1 protein [2]): 33 nM

Structure (SMILES): Nc1c(-c2ccc(F)c3[nH]ncc23)c2cc(F)c3ccccc3c2[nH]c1=O [Compound B35, 3-Amino-6-fluoro-4-(7-fluoro-1H-indazol-4-yl)-1H-benzo[h]quinolin-2-one]
- Bliss Score (Max) (LU65): 61%
- HSA Score (MAX) (LU65): 70%
- IC50 (MYT1 protein [1]): 0.44 nM
- IC50 (MYT1 protein [2]): 3.7 nM

Structure (SMILES): Nc1c(-c2ccc(Cl)c3[nH]ncc23)c2cc(C3CC3)c3ccccc3c2[nH]c1=O [Compound B37, 3-Amino-4-(7-chloro-1H-indazol-4-yl)-6-cyclopropyl-1H-benzo[h]quinolin-2-one]
- Bliss Score (Max) (LU65): 31%
- HSA Score (MAX) (LU65): 34%
- IC50 (MYT1 protein [1]): 0.75 nM
- IC50 (MYT1 protein [2]): 6 nM

Structure (SMILES): Nc1c(-c2cccc3[nH]ncc23)c2ccc3ccccc3c2[nH]c1=O [Compound B46, 3-Amino-4-(1H-indazol-4-yl)-1H-benzo[h]quinolin-2-one]
- Bliss Score (Max) (LU65): 52%
- HSA Score (MAX) (LU65): 65%
- IC50 (MYT1 protein [1]): 6.4 nM
- IC50 (MYT1 protein [2]): 6.3 nM

Structure (SMILES): Nc1c(-c2cccc(F)c2)c2ccc3ccccc3c2[nH]c1=O [Compound B50, 3-Amino-4-(3-fluorophenyl)-1H-benzo[h]quinolin-2-one; hydrochloride]
- IC50 (MYT1 protein [1]): 210 nM
- IC50 (MYT1 protein [2]): 750 nM

Structure (SMILES): Nc1c(-c2cccc3[nH]ncc23)c2cc(Cl)c3ncccc3c2[nH]c1=O [Compound C79, 3-Amino-6-chloro-4-(1H-indazol-4-yl)-1H-1,7-phenanthrolin-2-one]
- IC50 (MYT1 protein [1]): 0.3 nM
- IC50 (MYT1 protein [2]): 11 nM

Structure (SMILES): Nc1c(-c2cccc(O)c2)c2ccc3ncccc3c2[nH]c1=O [Compound C184, 3-Amino-4-(3-hydroxyphenyl)-1H-1,7-phenanthrolin-2-one; hydrobromide]
- IC50 (MYT1 protein [1]): < 4.6 nM
- IC50 (MYT1 protein [2]): 10 nM

Structure (SMILES): Nc1c(-c2cccc3[nH]ncc23)c2ccc3ncccc3c2[nH]c1=O [Compound C186, 3-Amino-4-(1H-indazol-4-yl)-1H-1,7-phenanthrolin-2-one]
- IC50 (MYT1 protein [1]): 3.9 nM
- IC50 (MYT1 protein [2]): 6.8 nM
